Reference: PMC5793121 (Toxins, 2018)
No end group written: not given here.

Assays:
[1] = molecular target: T1, mouse muscle type α1β1εδ nAChR (Mus musculus, UniProt P02716+P04756+P20782); experiment: Calcium imaging of ACh-evoked [Ca2+]i rise in Neuro2a cells expressing muscle nAChR (Case12 sensor); type: cell-based
T1 construct: expressed in transfected cells; host or cells: mouse neuroblastoma Neuro2a, transient transfection (pRBG4 plasmids), co-expressed with Case12 calcium sensor
Method: Mouse neuroblastoma Neuro2a cells were purchased from the Russian collection of cell cultures (Institute of Cytology, Russian Academy of Sciences, Saint Petersburg, Russia). Cells were cultured in DMEM (Paneco, Moscow, Russia) supplemented with 10% FBS. They were sub-cultured the day before transfection and were plated at a density of 10,000 cells per well in a 96-well black plate. On the next day Neuro2a cells were transiently transfected with plasmids coding mouse muscle α1β1δε nAChR (pRBG4-vector) and a fluorescent calcium sensor Case12 (pCase12-cyto vector, Evrogen, Moscow, Russia) in a molar ratio of 2:1 following a lipofectamine transfection protocol (ThermoFisher Scientific, Waltham, MA, USA). Human α7 nAChR (α7 nAChR-pCEP4) was expressed accordingly with a co-expression of the human chaperone Ric-3 (Ric3-pCMV6-XL5, OriGene, Rockville, MD, USA) in a molar ratio 4:1. The transfected cells were grown at 37 °C in a CO2 incubator for 48–72 h, before performing the calcium imaging assay.
Calcium imaging procedure was performed as published earlier. Briefly, after removing the growth medium, the transfected Neuro2a cells and cultivated SH-SY5Y cells were washed with a buffer containing 140 mM NaCl, 2 mM CaCl2, 2.8 mM KCl, 4 mM MgCl2, 20 mM HEPES, 10 mM glucose; pH 7.4. Neuro2a cells expressing muscle nAChR and the protein calcium sensor Case12 were proceeded directly, while SH-SY5Y cells expressing human α3-containing nAChRs natively were loaded with a fluorescent dye Fluo-4, AM (1.824 μM, ThermoFisher Scientific, Waltham, MA, USA) and a water-soluble probenecid (1.25 mM, ThermoFisher Scientific, Waltham, MA, USA) for 30 min at 37 °C and then were kept for 30 min at room temperature according to the manufacturer’s protocol.
To detect the human α7 nAChR-mediated calcium response, transfected Neuro2a cells were incubated with its positive allosteric modulator PNU120596 (10 μM, Tocris Bioscience, Bristol, UK) for 20 min at room temperature before acetylcholine (Sigma-Aldrich Chemie Gmbh, Munich, Germany) addition. To assess mouse muscle or human α3-containing nAChRs this step was skipped. […]
The plates were transferred to the multimodal microplate reader Hidex Sence (Hidex, Turku, Finland) where the cells were excited by light of 485 nm wavelength and emitted fluorescence was detected at 535 ± 10 nm. Fluorescence was recorded every 2 s for three minutes following agonist addition. Responses were measured as peak intensity minus basal fluorescence level and were expressed as a percentage of the maximal response obtained to agonist. Data files were analyzed using Hidex Sence software (Hidex, Turku, Finland) and OriginPro 7.5 software (OriginLab, Northampton, MA, USA, for statistical analysis).

[2] = system: Sprague Dawley rats; type: in vivo, rat; set-up: number of platelets / increase of platelet count from control: unit not given here
Method: A repeated dose 14-day intramuscular toxicity study was conducted on 36 SD male and 36 SD female adult rats. They were divided into 3 groups. The first control group was given normal saline, the second and the third experimental groups received Az at doses of 0.1 mg/kg and 0.5 mg/kg, respectively, daily for 14 days. The substances were injected into the quadriceps muscle of the thigh. Every day the animals were examined and any clinical signs of intoxication, body weight and food intake were recorded. The one half of the animals were euthanized on the 15th day of the study, the second half—after a 2-week cancellation period on the 29th day of the study. All animals were autopsied and their organs were inspected for any pathological signs, weighed and histologically examined. The ratio of organ-to-body weight was calculated for several organs: brain, heart, liver, spleen, thymus, kidneys, lungs, testicles and ovaries. The histological analysis was carried out for a number of organs: kidney, adrenal glands, testis, ovary, spleen, thymus, brain, heart, lung, liver, lymph node (mesenteric and mandibular), stomach, skin and muscle from the site of the administration.
A biochemical analysis of blood serum parameters was performed. A level of aspartate aminotransferase, alanine aminotransferase, glutamate dehydrogenase, alkaline phosphatase, gamma-glutamyl transferase, urea nitrogen, creatinine, total bilirubin, total protein, albumin, globulin, phosphorus, calcium, total cholesterol, triglycerides, albumin/globulin ratio was estimated. The analysis was performed using Randox GB reagent kits for each tested parameter and the automatic biochemical analyzer Sapphire-400 (Tokyo Boeki Ltd., Toyko, Japan).
A hematological analysis of animal blood included the evaluation of red and white blood cell number, a hemoglobin level, hematocrit, red cell distribution width, mean corpuscular volume (MCV), mean corpuscular hemoglobin (MCH), mean corpuscular hemoglobin concentration (MCHC), platelets number, a mean platelet volume, a mean platelet component and a cell number of neutrophils, eosinophils, basophils, lymphocytes, monocytes, large unstained cells, reticulocytes. The analysis was performed using a hematological analyzer Mythic 18 Vet (C2 D[…].A., Montpellier, France).

[3] = system: male and female ICR mice; type: in vivo, mouse; settings: 0.15 mg/kg subcutaneously, n = 10
Method: Allergenicity of Az was studied in a delayed-type hypersensitivity test on male (20 animals) and female (20 animals) adult ICR mice. The mice were divided into four groups (two control and two experimental groups) of 10 animals (males or females) per group. Mice of the experimental groups were injected subcutaneously at the base of a tail with Az solution (0.15 mg/kg) emulsified in Freund’s complete adjuvant in a ratio of 1:1 (2 mL/kg). Similarly, the mice in the control groups were administered with a suspension of normal saline in Freund’s complete adjuvant. Five days later all animals received an injection of Az (0.15 mg/kg, 1.33 mL/kg) in the pad of the left hind paw. To estimate the intensity of the studied allergic reaction, 6, 12 and 24 h after the second Az injection the thickness of the left and right hind mouse paws was measured with a digital caliper.

[4] = system: human α7 nAChR; settings: cited from earlier work
[5] = system: human muscle-type nAChR adult form α1β1εδ; settings: Xenopus oocytes; cited from earlier work
[6] = system: mice; settings: intraperitoneal administration to mice; cited from earlier work

T1 sequence (P09690 24-501): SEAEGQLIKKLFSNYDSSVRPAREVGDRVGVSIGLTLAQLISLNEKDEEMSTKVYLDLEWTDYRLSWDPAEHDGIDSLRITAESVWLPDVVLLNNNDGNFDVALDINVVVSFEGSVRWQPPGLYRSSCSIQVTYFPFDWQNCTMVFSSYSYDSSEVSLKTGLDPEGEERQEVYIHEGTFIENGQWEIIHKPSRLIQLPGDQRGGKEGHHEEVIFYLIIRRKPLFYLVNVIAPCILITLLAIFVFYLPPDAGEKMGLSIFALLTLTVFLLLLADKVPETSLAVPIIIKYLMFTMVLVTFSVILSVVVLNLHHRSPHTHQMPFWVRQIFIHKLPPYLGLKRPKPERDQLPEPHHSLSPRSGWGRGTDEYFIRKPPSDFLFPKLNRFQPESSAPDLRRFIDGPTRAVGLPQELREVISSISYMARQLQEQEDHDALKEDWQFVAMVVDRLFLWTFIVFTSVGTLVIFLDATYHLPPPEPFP
T1 sequence (P04756 21-457): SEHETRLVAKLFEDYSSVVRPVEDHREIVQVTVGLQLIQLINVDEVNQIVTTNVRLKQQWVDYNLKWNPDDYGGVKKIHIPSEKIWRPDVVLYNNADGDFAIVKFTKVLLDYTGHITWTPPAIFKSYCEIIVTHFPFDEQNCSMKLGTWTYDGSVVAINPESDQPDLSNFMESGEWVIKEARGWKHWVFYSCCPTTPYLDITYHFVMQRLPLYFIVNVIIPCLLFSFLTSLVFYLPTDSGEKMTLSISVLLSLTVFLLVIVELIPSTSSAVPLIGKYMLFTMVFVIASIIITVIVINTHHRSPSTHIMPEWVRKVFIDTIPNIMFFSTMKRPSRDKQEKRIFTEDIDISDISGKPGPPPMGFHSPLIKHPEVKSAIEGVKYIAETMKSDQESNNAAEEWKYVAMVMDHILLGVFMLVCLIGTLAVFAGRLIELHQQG
T1 sequence (P02716 25-520): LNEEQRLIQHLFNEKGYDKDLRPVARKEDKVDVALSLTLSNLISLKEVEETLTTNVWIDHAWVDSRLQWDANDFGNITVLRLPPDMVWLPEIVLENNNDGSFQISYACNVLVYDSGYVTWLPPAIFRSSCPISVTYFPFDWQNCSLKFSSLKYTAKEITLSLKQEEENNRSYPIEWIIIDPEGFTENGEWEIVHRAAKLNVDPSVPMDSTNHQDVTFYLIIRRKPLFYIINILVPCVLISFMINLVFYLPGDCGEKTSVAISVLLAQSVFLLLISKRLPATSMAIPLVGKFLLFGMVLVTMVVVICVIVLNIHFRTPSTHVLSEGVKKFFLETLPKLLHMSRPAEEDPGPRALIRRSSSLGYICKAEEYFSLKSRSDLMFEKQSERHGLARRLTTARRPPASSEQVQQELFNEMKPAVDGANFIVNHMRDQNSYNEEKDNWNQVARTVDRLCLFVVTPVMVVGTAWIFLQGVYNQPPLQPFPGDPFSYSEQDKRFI
T1 sequence (P20782 21-493): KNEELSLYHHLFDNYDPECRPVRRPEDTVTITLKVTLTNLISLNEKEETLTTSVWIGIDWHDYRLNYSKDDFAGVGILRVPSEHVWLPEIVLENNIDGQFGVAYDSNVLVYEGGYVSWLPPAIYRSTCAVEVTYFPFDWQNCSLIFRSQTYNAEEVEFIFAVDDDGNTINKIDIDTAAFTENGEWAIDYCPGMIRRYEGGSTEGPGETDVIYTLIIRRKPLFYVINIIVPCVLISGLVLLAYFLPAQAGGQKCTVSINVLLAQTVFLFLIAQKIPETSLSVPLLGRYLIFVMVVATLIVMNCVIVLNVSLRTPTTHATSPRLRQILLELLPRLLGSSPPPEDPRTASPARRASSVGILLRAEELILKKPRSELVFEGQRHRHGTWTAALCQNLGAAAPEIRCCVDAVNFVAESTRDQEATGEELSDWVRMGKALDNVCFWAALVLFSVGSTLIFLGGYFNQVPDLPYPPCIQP

With “DNWWPKPPHQGPRPPRPRPKP-NH2 [Az, azemiopsin]” the IC50 ([1]; 30 μM ACh (EC100), transfected Neuro2a cells, Case12 sensor, 15 min preincubation, mean ± SEM, 4 independent experiments, read-out: IC50, inhibition of ACh-evoked calcium response of muscle nAChR) was 19 ± 8 nM, the “selectivity to muscle receptor versus α7 nAChR” value ([1]; ratio of calcium imaging IC50 values α7 / muscle) was “about 140 times” and the “changes in the hemogram relative to control” value ([2]; 0.1 mg/kg im 14 days) was “did not lead to any changes”. The “increase in mean body weight and food intake vs control” value ([2]; 0.1 and 0.5 mg/kg im 14 days) was “did not differ significantly”, the “histological analysis of organs and tissues” value ([2]; 0.1 and 0.5 mg/kg im 14 days, rats) was “No pathological changes” and the “lowering of cholesterol level from control” value ([2]; female rats, 0.1 mg/kg) was 0.73 mmol/L. The “level of calcium in blood serum” value ([2]; female rats, 0.1 mg/kg, end of 28-day experiment, n = 6, control 3.25 ± 0.09) was 3090 ± 60 µM, the “level of cholesterol in blood serum” value ([2]; female rats, 0.1 mg/kg, end of 28-day experiment, n = 6, control 3.55 ± 0.39) was 2820 ± 360 µM and the “decrease of triglyceride level from control” value ([2]; male rats receiving Az) was 0.28 mmol/L. The “difference of relative heart mass from control” value ([2]; male rats receiving Az) was 0.076%, the “increase of platelet count from control” value ([2]; male rats receiving Az) was 81 and the number of platelets ([2]; male rats, 0.5 mg/kg im 14 days, n = 6, control 729 ± 22) was 810 ± 39. For the same substance, the “mean level of triglycerides in blood serum” value ([2]; male rats, 0.5 mg/kg, end of 28-day experiment, n = 6, control 1.25) was 970 µM, the “mean relative heart weight” value ([2]; male rats, 0.5 mg/kg, two weeks after administration, n = 6, control 0.428 ± 0.086) was 0.352 ± 0.033% and the “allergic effect in the delayed-type hypersensitivity reaction test” value [3] was “no allergic effect”. For the same substance, the IC50 [4] was 22000 ± 2000 nM, the IC50 [5] was 440 ± 100 nM and the LD50 [6] was 2.57 ± 0.27 mg/kg.
